Entries after “also recorded” stand apart in the source; their conditions may differ.
Columns and labels:
[1] = tested on: Notch1 full-length receptor; experiment: Notch1 full-length receptor driven luciferase reporter assay (HeLa co-culture with DLL4 ligand expressing HeLa cells); format: cell-based; conditions: for Notch signaling relative to the DMSO control: control treatments, FIG. 1
Experimental: As used herein, the term “enhancing Notch signaling” refers to an effect on a cellular Notch-driven luciferase reporter assay, by which the Notch signaling enhancing properties of the compounds of the invention are determined. The Notch-driven luciferase reporter assay consists of HeLa cells engineered to express the Notch1 full length receptor, and to harbor a CSL-driven firefly luciferase expression construct as well as a Notch independent Renilla luciferase construct for the purpose of normalisation. These cells are co-cultured with engineered HeLa cells expressing the Notch ligand D114 to induce Notch signaling, thus to induce the expression of the firefly luciferase enzyme. The intensity of a luciferase-driven reporter signal is considered as a measure for Notch signaling.
A compound is considered as having an effect of enhancing Notch signaling if said compound results relative to DMSO in ≥1.5-fold increase, preferably in ≥2.0-fold increase, more preferably in ≥2.5-fold increase and most preferably in ≥3.0-fold increase of the Luciferase-driven reporter signal in the frame of the named Notch-dependent luciferase reporter assay.
FIG. 1. […] The indicated compounds were tested at 10 μM concentration in a Notch-driven luciferase reporter assay. HeLa cells had been engineered to express the Notch1 full-length receptor, the firefly luciferase (expression dependent on Notch signaling) and the renilla luciferase (expression independent on Notch signaling). Cells were co-cultured in a 96 well-plate with DLL4 ligand expressing HeLa cells to induce Notch signaling and simultaneously treated with DMSO or indicated compounds for 20 h. Notch signaling activation was then quantified by measuring luciferase-dependent luminescence intensities upon treatment with appropriate substrates. The firefly values were normalized against the renilla values to obtain the relative luminescence intensities (represented by the bars).
(§1) A brief description of the assay is given in the description of FIG. 1. If not stated differently, all assays were performed using a Notch1 full-length receptor driven reporter system. Values are normalized against DMSO. a) V126 (black rhombi) was tested at the indicated concentrations. […] The control readouts for DMSO (black), CB103 (white), V126 at 10 μM and V126 at 1 μM (diagonal lines) were taken as usual after incubation for 20 h. c) V126 was tested in combination with an equimolar amount of the y-secretase inhibitor DAPT or the Notch inhibitor CB103 at 10 μM concentration each. d) V126 and the indicated compounds were tested at 10 μM in a luciferase reporter assay driven by the Notch2 receptor isoform. e) V126 and the indicated compounds were tested at 10 μM in a luciferase assay driven by the constitutively active form of the Notch1 receptor (N1ICD, Notch1 intracellular domain).

[2] = tested on: Notch2 full-length receptor; experiment: Luciferase reporter assay driven by the Notch2 receptor isoform (N2FL); format: cell-based; conditions: 10 μM, FIG. 2d
Experimental: as §1
(§2) To rule out that V126 is directly enhancing the activity of the luciferase enzyme, the Notch reporter assay was challenged by applying V126 treatment immediately prior to the readout. […] Moreover, the Notch-enhancing activity of V126 could be partially and completely rescued by combinational equimolar treatment with the γ-secretase inhibitor DAPT or the Notch inhibitor CB103, respectively, further confirming the ability of V126 to upregulate Notch signaling (FIG. 2c).

[3] = molecular target: T1, luciferase enzyme (Photinus pyralis, UniProt P08659); experiment: Direct influence on luciferase enzyme activity (treatment 5 min prior to readout of the Notch reporter assay); format: cell-based; conditions: 10 μM and 1 μM, 5 min prior to the readout, FIG. 2b
T1 construct: expressed in transfected cells; host or cells: HeLa cells engineered with Notch1 full-length receptor, firefly and Renilla luciferase constructs, co-cultured with DLL4-expressing HeLa cells
T1 sequence (P08659 whole entry): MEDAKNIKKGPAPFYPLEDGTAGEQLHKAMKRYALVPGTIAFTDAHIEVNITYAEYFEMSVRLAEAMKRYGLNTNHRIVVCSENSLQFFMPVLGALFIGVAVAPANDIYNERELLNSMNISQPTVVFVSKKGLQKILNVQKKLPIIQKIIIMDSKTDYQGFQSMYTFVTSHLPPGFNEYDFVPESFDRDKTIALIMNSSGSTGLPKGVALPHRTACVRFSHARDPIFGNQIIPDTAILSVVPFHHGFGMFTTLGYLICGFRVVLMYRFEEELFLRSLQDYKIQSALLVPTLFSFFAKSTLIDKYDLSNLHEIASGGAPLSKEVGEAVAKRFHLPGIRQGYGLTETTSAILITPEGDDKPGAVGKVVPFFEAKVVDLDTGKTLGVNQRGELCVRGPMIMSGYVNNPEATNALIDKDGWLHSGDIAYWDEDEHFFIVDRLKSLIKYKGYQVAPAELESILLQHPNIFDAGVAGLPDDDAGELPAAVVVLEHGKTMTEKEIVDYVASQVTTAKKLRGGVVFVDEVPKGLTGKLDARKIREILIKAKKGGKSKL
Experimental: as §1, §2

[4] = tested on: CD4 T cells; experiment: IFN-γ production and secretion of CD4 T cells under Th1 polarizing conditions; format: cell-based, mice; conditions: 10 μM, 96 hours, intracellular IFN-γ and Elisa of culture supernatants
Experimental: FIGS. 5A-5C The Notch signaling enhancing compound V126 induces increased IFNy production and secretion in vitro. CD4 T cells isolated from naive CS7B/6 mice were cultured on plate bound α-CD3/α-CD28 (both 0.25μg/m1) under Th1 polarizing conditions (rlL-12, (5ng/ml) and anti-IL-4 (clone:11B11; […])) in the presence of DMSO, DAPT as y-secretase inhibitor and V126 at 10 μM. 96 hours after initiation of the culture, intracellular IFN-y levels a) and CD25 surface expression b) were assessed on PMA/lonomycin stimulated CD4 T cells. c) IFN-y cytokine levels were assessed in culture supernatants by Elisa under the same conditions as in a) and b).

[5] = tested on: SCC13 cells; experiment: Involucrin protein expression in SCC13 cells (Western Blot); format: cell-based, human; conditions: 10 μM, 48 h, β-actin as loading control
Experimental: Cells were treated with DMSO or V126 at a concentration of 10 μM for 48 h. Total cell lysates were applied on Western Blot analysis using β-actin as loading control.
Notch activation in the skin is known to drive differentiation of keratinocytes resulting in the induction of differentiation markers such as involucrin (C. Nowell, Cold Spring Harb Perspect Med. 2013, 3, 12), (G. P. Dotto, Oncogene 2008, 27, 5115-5123). […] In the spleen, marginal zone B-cells (MZBs) and follicular B-cells (FoBs) are the two main types of mature B-cells, both of which develop from the same precursor cells, namely the transitional B-cells (TBs). Notch2 signaling was reported to play a crucial role in the development of MZBs (S. Pillai, Nat. Rev. Immunol. 2009, 9, 767-777) and increased Notch2 signaling in the spleen leads to an expansion of the MZB compartment (F. Hampel, Blood 2011, 118, 24, 6321-6331). In contrast, the development of FoBs is not dependent on Notch signaling. To evaluate the effect of V126 in vivo, C57BL/6N mice were injected intraperitoneally with 25 mg/kg V126 once a day for one week. The impact of V126 on the different B-cell compartments in these mice was analyzed by flow cytometry on splenocytes, showing that V126 was capable to double the number of MZBs as compared to the control, whereas the FoB numbers were not affected (FIG. 4).

[6] = tested on: N1ICD, Notch1 intracellular domain; experiment: Luciferase assay driven by the constitutively active form of the Notch1 receptor (N1ICD); format: cell-based; conditions: 10 μM, FIG. 2e
Experimental: as §1, §2

[7] = tested on: splenic marginal zone B-cells (MZB); experiment: Splenic B-cell compartments in mice by flow cytometry; format: in vivo, C57BL/6N mice; conditions: 25 mg/kg intraperitoneal once a day for one week
Experimental: C57BL/6N mice were treated with 25 mg/kg V126 by intraperitoneal injection once a day for one week. a) Spleen cells were analyzed by flow cytometry. Shown are two representative plots of control (Ctrl., n=5) and V126 (n=4) treatments displaying the B220+cell (total B-cell) population. The gates encircle the respective MZB, FoB, and TB fractions with the corresponding numbers indicating the relative proportions (in percentage) of cells out of the B220+population. b) The bar diagrams quantify the relative MZB percentages from a) (left), and the recalculated total numbers of splenic MZBs (right). FoBs: Follicular B-cells, TBs: Transitional B-cells, see text.
Notch activation in the skin is known to drive differentiation of keratinocytes resulting in the induction of differentiation markers such as involucrin (C. Nowell, Cold Spring Harb Perspect Med. 2013, 3, 12), (G. P. Dotto, Oncogene 2008, 27, 5115-5123). […] In the spleen, marginal zone B-cells (MZBs) and follicular B-cells (FoBs) are the two main types of mature B-cells, both of which develop from the same precursor cells, namely the transitional B-cells (TBs). […] The impact of V126 on the different B-cell compartments in these mice was analyzed by flow cytometry on splenocytes, showing that V126 was capable to double the number of MZBs as compared to the control, whereas the FoB numbers were not affected (FIG. 4).

CC(C)(C)c1ccc(Oc2ccc(N)cn2)cc1 [CB103, reference compound]
Notch signaling relative to the DMSO control ([1]; 20 h): decrease in Notch signaling

C[C@H](NC(=O)Cc1cc(F)cc(F)c1)C(=O)N[C@H](C(=O)OC(C)(C)C)c1ccccc1 [DAPT, reference compound]
Notch signaling relative to the DMSO control ([1]; 20 h): decrease in Notch signaling

CC(C)(C)c1ccc(Oc2ccc(C(=O)O)cc2)cc1 [V126, 4-(4-(tert-Butyl)phenoxy)benzoic acid]
enhancement of Notch2 receptor driven signaling [2]: enhance signaling derived from different Notch receptor isoforms | luciferase values after short-term treatment immediately prior to the readout [3]: in the range of the DMSO control level | IFNγ production and secretion [4]: increased | luciferase values after treatment for 20 h in the very same readout ([1]; 10 μM and 1 μM, 20 h, FIG. 2b): expected upregulation | rescue of the Notch-enhancing activity by combinational equimolar treatment with CB103 ([1]; V126 plus Notch inhibitor CB103, 10 μM each, FIG. 2c): completely | rescue of the Notch-enhancing activity by combinational equimolar treatment with DAPT ([1]; V126 plus γ-secretase inhibitor DAPT, 10 μM each, FIG. 2c): partially | enhancement of Notch signaling ([1]; concentration of 1↔M, FIG. 2a): strongly enhanced Notch signaling | expression of the differentiation marker involucrin at the protein level [5]: increased protein expression | enhancement of N1ICD driven signaling [6]: enhance the signaling cascade taking place downstream of ligand-mediated activation of Notch signaling | FoB (follicular B-cell) numbers [7]: not affected | number of splenic MZBs compared to the control [7]: increase; also recorded: double

CCCC(CCC)C(=O)O [valproic acid, reference compound]
effect on Notch signaling ([1]; concentrations up to 40 μM, FIG. 2a): did not show any effect

From patent US10772876B2, “Enhancers of Notch signaling and the use thereof in the treatment of cancers and malignancies medicable by upregulation of Notch” (XENIOPRO GmbH, priority 2016, dated 2020)
